How the values were obtained:
[1] = target: T1, surface-expressed CD73 on human PBMCs (Homo sapiens, UniProt P21589); assay: Human immune cell-based CD73 enzyme inhibition assay (PBMCs); conditions: AMP 300 μM, 2.5-3 h
T1 construct: 72400 (T cells); host or cells: human PBMCs / human T cells
T1 sequence (P21589 27-549): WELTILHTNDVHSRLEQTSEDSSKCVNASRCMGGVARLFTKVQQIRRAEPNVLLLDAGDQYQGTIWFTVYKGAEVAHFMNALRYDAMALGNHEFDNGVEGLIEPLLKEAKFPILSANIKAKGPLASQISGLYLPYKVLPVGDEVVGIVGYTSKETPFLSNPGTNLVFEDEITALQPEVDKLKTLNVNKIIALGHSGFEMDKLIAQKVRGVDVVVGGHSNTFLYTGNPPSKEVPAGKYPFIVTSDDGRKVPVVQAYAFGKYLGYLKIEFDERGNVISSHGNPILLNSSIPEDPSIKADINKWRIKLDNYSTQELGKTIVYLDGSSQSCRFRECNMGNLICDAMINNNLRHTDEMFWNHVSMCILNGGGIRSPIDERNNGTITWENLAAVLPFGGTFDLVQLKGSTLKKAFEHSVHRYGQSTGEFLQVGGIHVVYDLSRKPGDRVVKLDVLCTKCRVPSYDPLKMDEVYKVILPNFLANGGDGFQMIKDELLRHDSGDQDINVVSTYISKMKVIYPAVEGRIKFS
Protocol: (§1) The human immune cell-based CD73 enzyme inhibition assay was performed essentially as described above For the cell-free assay, with the following modifications. Human PBMCs (cat. no. HUMAN-PBMC-U-211140) or T cells (cat. no. 72400, Stem Cell Tech) were seeded at 8×10^3 cells/well into 96-well tissue culture-treated plates. […] Percent CD73 inhibition versus concentration were plotted using GraphPad Prism Version 8 and IC50's calculated using nonlinear regression analysis ([inhibitor]vs normalized response).

[2] = target: T2, surface-expressed CD73 on human T cells (Homo sapiens, UniProt P21589); assay: Human immune cell-based CD73 enzyme inhibition assay (T cells); conditions: 2.5-3 h
T2 construct: 72400 (T cells); host or cells: human PBMCs / human T cells
T2 sequence (P21589 27-549): T1 sequence (P21589 27-549)
Protocol: as §1

CD73 = target: T3, CD73 (Homo sapiens, UniProt P21589); assay: Cell-free CD73 enzyme inhibition assay; type: biochemical; conditions: recombinant human CD73 0.1 ng/μL, AMP 100 μM, 25 min at 37° C. (FIG. 1A, 1B)
T3 sequence (P21589 27-549): T1 sequence (P21589 27-549)
Protocol: The cell-free CD73 enzyme inhibition assay was performed in a 96-well plate format using the CD73 Inhibitor Screening Assay Kit in accordance with the manufacturer's instructions (cat no. 72055, BPS Bioscience). […] Colorimetric detection reagent was then added (100 μL/well) and the free phosphate from the CD73 reaction was measured by reading the absorbance at 630 nm using the EnSpire multimode plate reader (PerkinElmer). Wells without test inhibitor (CD73 positive control) were included on each plate. Blank wells without test inhibitor and CD73 were subtracted from all wells. Percent CD73 inhibition versus inhibitor concentration was plotted using GraphPad Prism Version 8 and IC50's calculated using nonlinear regression analysis (Sigmoidal, 4 PL).
The cell-free CD73 enzyme inhibition assay was performed in a 96-well plate format using the CD73 Inhibitor Screening Assay Kit in accordance with the manufacturer's instructions (BPS Bioscience cat no. 72055). […] Colorimetric detection reagent was then added (100 μL/well) and the free phosphate from the CD73 reaction was measured by reading the absorbance at 630 nm using the EnSpire multimode plate reader (PerkinElmer). Wells without test inhibitor (CD73 positive control) were included on each plate. Blank wells without test inhibitor and CD73 were subtracted from all wells. Percent CD73 inhibition (y-axis) versus log10 inhibitor concentration (x-axis) was plotted using GraphPad Prism Version 8 and IC50's calculated using nonlinear regression analysis (Sigmoidal, 4 PL).

[3] = target: T4, CD73 expressed on the MDA-MB-231 cell surface (Homo sapiens, UniProt P21589); assay: Cell-based CD73 enzyme inhibition assay on MDA-MB-231 cells; conditions: AMP 100 μM, 3 h (FIG. 2)
T4 construct: host or cells: MDA-MB-231
T4 sequence (P21589 27-549): T1 sequence (P21589 27-549)
Protocol: The cell-based CD73 enzyme inhibition assay was performed essentially as described above for the cell-free assay, with the following modifications.
(§2) The cell-based CD73 enzyme inhibition assay was performed essentially as described above for the cell-free assay, with the following modifications. MDA-MB-231 human breast adenocarcinoma cells (ATCC CRM-HTB-26) were seeded at 2×10^4 cells/well/100 μL into 96-well tissue culture-treated plates (Corning Costar cat no. 3596) and incubated overnight at 37° C., 5% CO2. […] The 96-well plate was then centrifuged at 125×g for 5 min at room temperature and ATP (25 μL/well, 100 μM final) was combined with supernatant (25 μL/well) in a white opaque 96-well plate (Corning Costar cat no. 3912).
as §2, with “3912). […] Percent CD73 inhibition (y-axis) versus log10 inhibitor concentration (x-axis) were plotted using GraphPad Prism Version 8 and IC50's calculated using nonlinear regression analysis (Sigmoidal, 4 PL).” for “3912).”

IC50 [1] | IC50 ([2]; T Cells - Experiment 1, AMP 300 μM) | IC50 ([2]; T Cells - Experiment 2, AMP 300 μM) | IC50 (CD73) | IC50 [3] | SMILES
2.87 nM | 1.47 nM | 0.12 nM | – | – | O=C(CCOCCOCCOCCOCCn1cc(COCCOCCOCCOCCOC2CCC3(CC2)CN(c2nc(Cl)nc4c2cnn4[C@@H]2O[C@H](COCP(=O)(O)O)[C@@H](O)[C@H]2O)C3)nn1)Oc1c(F)cc(F)cc1F [Int-259]
– | – | – | 26.1 nM | 41.4 nM | C#CCOCCOCCOCCOCCOC1CCC2(CC1)CN(c1nc(Cl)nc3c1cnn3[C@@H]1O[C@H](COCP(=O)(O)O)[C@@H](O)[C@H]1O)C2 [Int-258]

Source: patent US20260000781A1, “FC CONJUGATES INCLUDING AN INHIBITOR OF CD73 AND USES THEREOF” (Cidara Therapeutics, Inc., priority 2022, published 2026)
